Measurements reported in patent US20240301494A1, “IDENTIFICATION AND TREATMENT OF PATIENTS WITH EPILEPSY” (GW Research Limited, priority 2020, published 2024).

What was measured:
Assay type in all cases: in vivo, human
[1] = test system: patients with treatment-resistant epilepsy (TRE); experiment: Single-marker association of genetic variants (DMET plus array) with CBD response, logistic regression
Experimental: (§1) Baseline data collection included demographics, seizure frequencies/severity, concomitant AEDs, and laboratory data.
CLIA-certified genotyping on the Affymetrix Drug Metabolizing Enzymes and Transporters (DMET) plus array was performed through the Coriell Institute for Medical Research (Camden, NJ) in two batches, with nine samples re-genotyped due to low call rates. The DMET plus array interrogates 1,936 markers (1,931 variants and 5 copy number regions) across ˜230 drug-related genes. Affymetrix DMET Console software® (version 1.3) was used to generate genotype profiles. Of the 1,931 variants, 1,328 were removed due to location on the X-chromosome or a minor allele frequency <0.05.
Hardy-Weinberg equilibrium was evaluated, and variants p<0.0001 were further evaluated by race. Variants in linkage disequilibrium (LD) were removed (n=212; r2=0.5), leaving 396 variants in the analyses.
Relationships between variants and CBD response/tolerability were tested under dominant (AA vs Ab+bb) and recessive (AA+Ab vs bb) models using logistic regression in PLINK. Treatment group (adult vs paediatric), race, and sex were included as covariates in all analyses.
(§2) A permutation approach was used to account for multiple testing (number of permutations: 1,000), since other methods (e.g. Bonferroni correction) assume independence between markers and likely be overly conservative.

[2] = test system: patients with treatment-resistant epilepsy (TRE); experiment: Multivariable model of CBD response in treatment-resistant epilepsy
Experimental: Receiver operator curves (ROC) were generated and the area under the curve (AUC) was evaluated to compare clinical, genetic, and combined clinical+genetic models. Epistasis was evaluated in PLINK to identify potential interactions among variants included in the final response model.

[3] = test system: patients with treatment-resistant epilepsy (TRE); experiment: CBD tolerability: adverse events (MedDRA) in open-label Expanded Access Program
Experimental: (§3) All patients (or caregivers) were instructed to keep seizure diaries, which were verified during in-person visits. At each clinic visit, data on concomitant AEDs, CBD maintenance dose (mg/kg/day), seizure frequencies, and adverse events were collected.
Adverse effects were classified according to the Medical Dictionary for Regulatory Activities (MedDRA, V17.1), and those that differed by response status (diarrhoea, sedation, and abnormal liver function tests (LFTs)) were evaluated in the genetic analyses.

[4] = test system: patients with treatment-resistant epilepsy (TRE); experiment: CBD response (percent change in seizure frequency) in open-label Expanded Access Program; details: for Maintenance seizure frequency, Mean ± SD: per 28 days; for Percent change seizure frequency, Mean ± SD: vs baseline
Source text: as §3

[5] = test system: patients with treatment-resistant epilepsy (TRE); experiment: Single-marker association of genetic variants (DMET plus array) with CBD-related adverse effects, logistic regression
Experimental: as §1
CLIA-certified genotyping on the Affymetrix Drug Metabolizing Enzymes and Transporters (DMET) plus array was performed through the Coriell Institute for Medical Research (Camden, NJ) in two batches, with nine samples re-genotyped due to low call rates. The DMET plus array interrogates 1,936 markers (1,931 variants and 5 copy number regions) across ˜230 drug-related genes. Affymetrix DMET Console software® (version 1.3) was used to generate genotype profiles.
Hardy-Weinberg equilibrium was evaluated, and variants p<0.0001 were further evaluated by race.
Treatment group (adult vs paediatric), race, and sex were included as covariates in all analyses.
as §2

## C=C(C)[C@@H]1CCC(C)=C[C@H]1c1c(O)cc(CCCCC)cc1O [CBD, cannabidiol]
[1]; AOX1 rs6729738, recessive
  increased likelihood of response: 6 fold
[1]; CHST11 rs903247
  increased odds of response: 4 fold
[1]; GSTM5 rs2479390
  decreased likelihood of response: 72%
[1]; GSTP1 rs1695 (recessive)
  decreased likelihood of response: 87%
[1]; SULT1A2 rs1059491 (recessive)
  increased likelihood of response: 17 fold
[1]; UGT2B4 rs1966151
  increased odds of response: 4 fold
[2]; ABP1 (AOC1) rs12539
  OR of CBD response, multivariable model: 5.67
[2]; CHST11 rs903247
  OR of CBD response, multivariable model: 5.03
[2]; DPYD rs1801265
  OR of CBD response, multivariable model: 4.50
[2]; FMO2 rs7515157 (recessive)
  OR of CBD response, multivariable model: 0.06
[2]; GSTM5 rs2479390
  OR of CBD response, multivariable model: 0.15
[2]; GSTP1 rs1695 (recessive)
  OR of CBD response, multivariable model: 0.03
[2]; SLC7A7 rs1061040
  OR of CBD response, multivariable model: 5.04
[2]; UGT2B4 rs1966151
  OR of CBD response, multivariable model: 5.02
[2]; predictor: CBD dose (mg/kg/day)
  OR of CBD response, multivariable model: 1.07
[3]; Non-Responders (N = 49)
  Adverse event Abnormal liver function tests, %: (4.1%)
  Adverse event Decreased appetite, %: (6.1%)
  Adverse event Depressed mood, %: (14.3%)
  Adverse event Diarrhoea, %: (44.9%)
  Adverse event Nausea/vomiting, %: (10.2%)
  Adverse event Sedation, %: (44.9%)
  Weight Change: 10-20% Weight loss, %: (24.5%)
  Weight Change: <10% Weight loss, %: (53.1%)
  Weight Change: >20% Weight loss, %: (6.1%)
  Weight Change: No Change or increase, %: (16.3%)
[3]; Overall (N = 112)
  Adverse event Abnormal liver function tests, %: (10.7%)
  Adverse event Decreased appetite, %: (10.7%)
  Adverse event Depressed mood, %: (10.7%)
  Adverse event Diarrhoea, %: (58.9%)
  Adverse event Nausea/vomiting, %: (12.5%)
  Adverse event Sedation, %: (34.8%)
  Weight Change: 10-20% Weight loss, %: (20.5%)
  Weight Change: <10% Weight loss, %: (51.8%)
  Weight Change: >20% Weight loss, %: (8.0%)
  Weight Change: No Change or increase, %: (19.6%)
[3]; Responders (N = 63)
  Adverse event Abnormal liver function tests, %: (15.9%)
  Adverse event Decreased appetite, %: (14.3%)
  Adverse event Depressed mood, %: (7.9%)
  Adverse event Diarrhoea, %: (69.8%)
  Adverse event Nausea/vomiting, %: (14.3%)
  Adverse event Sedation, %: (27.0%)
  Weight Change: 10-20% Weight loss, %: (17.5%)
  Weight Change: <10% Weight loss, %: (50.8%)
  Weight Change: >20% Weight loss, %: (9.5%)
  Weight Change: No Change or increase, %: (22.2%)
[4]; 112 genotyped TRE patients
  Therapeutic response (≥50% reduction), share of patients: 56.3%
[4]; Non-Responders (N = 49)
  Maintenance seizure frequency, Median: 14.73
  Percent change seizure frequency, Median: −14.3%
  Maintenance seizure frequency, Mean ± SD: 108.52 ± 327.05
  Percent change seizure frequency, Mean ± SD: 5.65 ± 59.13%
[4]; Overall (N = 112)
  Maintenance seizure frequency, Median: 7.76
  Percent change seizure frequency, Median: −53.9%
  Maintenance seizure frequency, Mean ± SD: 58.54 ± 222.27
  Percent change seizure frequency, Mean ± SD: −42.08 ± 58.76%
[4]; Responders (N = 63)
  Maintenance seizure frequency, Median: 4.50
  Percent change seizure frequency, Median: −82%
  Maintenance seizure frequency, Mean ± SD: 19.65 ± 46.09
  Percent change seizure frequency, Mean ± SD: −79.20 ± 16.58%
[4]; of 112 patients
  Therapeutic response (≥50% reduction), number of patients: 63
[5]; ABCB1 rs1045642
  association of variant with CBD-associated sedation: decreased sedation
[5]; APOA2 rs5085, recessive
  increased likelihood of abnormal LFTs: 6 fold
[5]; COMT rs4680 recessive wild-type G alleles
  association of variant with CBD-associated sedation: decreased sedation
[5]; CYP2A6 rs28399433
  increased likelihood of diarrhoea: 10 fold
[5]; CYP2C19 rs3758581
  association of variant with CBD-associated sedation: decreased sedation
[5]; CYP39A1 rs7761731
  increased likelihood of diarrhoea: ~9 fold
[5]; FMO6 rs2272797
  increased likelihood of diarrhoea: ~5 fold
[5]; SLC22A2 rs316003, recessive
  increased odds of abnormal LFTs: ~11 fold
[5]; SLC22A5 rs274548, recessive
  increased odds of abnormal LFTs: ~15 fold
[5]; SLC22A11 rs1783811, recessive
  increased odds of abnormal LFTs: ~6 fold
[5]; TPMT rs2842934
  association of variant with CBD-associated sedation: decreased sedation
[5]; UGT2A1 rs4148304 missense variant
  association of variant with CBD-associated sedation: decreased odds of sedation
[5]; UGT2A1 rs11249454 intron variant
  association of variant with CBD-associated diarrhoea: decreased odds of diarrhoea
